{"source": "patent US20260199485A1", "about": "“RNA DEGRADERS AND USES THEREOF” (Arrakis Therapeutics, Inc., priority 2022, published 2026)"}
{"target": "T1, CNOT7 (Homo sapiens, UniProt Q9UIV1)", "T1 construct": "biotin (biotinylated); purchased Ichor Life Sciences", "T1 sequence (Q9UIV1 whole entry)": "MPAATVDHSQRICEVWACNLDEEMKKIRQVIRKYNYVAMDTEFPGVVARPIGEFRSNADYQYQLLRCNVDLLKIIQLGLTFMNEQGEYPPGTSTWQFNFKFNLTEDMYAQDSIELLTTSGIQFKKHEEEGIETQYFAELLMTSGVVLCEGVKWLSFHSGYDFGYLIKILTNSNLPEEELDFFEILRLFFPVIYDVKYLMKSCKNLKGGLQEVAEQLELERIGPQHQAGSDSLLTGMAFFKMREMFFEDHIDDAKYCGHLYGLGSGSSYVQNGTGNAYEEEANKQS", "assay": "Binding of compounds to CNOT7 by surface plasmon resonance (SPR)", "conditions": "Table 4; dissociation constant for CNOT7", "experimental": "(§1) Surface plasmon resonance (SPR) was used to evaluate the binding of compounds to CNOT7. Experiments were performed on a Biacore 8K (Cytiva) with a running buffer consisting of 20 mM HEPES pH7.5, 100 mM KCl, 3 mM MgCl2, 1 mM TCEP, 0.05% tween-20, 2% DMSO. Briefly, biotinylated CNOT7 (Ichor Life Sciences) at a concentration of 70 μg/ml was immobilized to a streptavidin coated chip (Cytiva sensor chip SA) for 1200 sec at a flow rate of 5 μl/min (typical immobilization level 7,500 RU). For compound binding experiments, various concentrations of analyte were flowed over the chip with 120 sec association phase, 120 sec dissociation phase, at a flow rate of 30 ul/min and collection rate of 10 Hz. Reference channel subtraction and solvent correction were applied to all sensograms prior to data analysis. Sensograms were fit to 1:1 steady state affinity model. FIGS. 3 and 4 show the binding of exemplary compounds and the AMP control (a known CNOT7 active site binder) at various concentrations to CNOT7.", "units": {"Kd": "µM"}}
{"smiles": "O=C(CSc1cc[nH]c(=O)n1)NCc1ccc2c(c1)OCO2", "note": "[Compound I-2]", "Kd": "> 25"}
{"target": "T1, CNOT7", "assay": "Binding of compounds to CNOT7 by surface plasmon resonance (SPR)", "conditions": "Table 5; dissociation constant for CNOT7 by SPR", "experimental": "as §1", "units": {"Kd": "µM"}}
{"smiles": "COC[C@H](Sc1nc(=O)[nH]cc1C)C(=O)N[C@H](C)c1ccc2c(c1)CC(=O)N2", "note": "[Compound I-193]", "Kd": "1 to 25"}
{"smiles": "COc1ccc(C(C)NC(=O)CSc2nc(=O)[nH]cc2C)cc1", "note": "(stereo not shown) [Compound I-28]", "Kd": "1 to 25"}
{"smiles": "COc1ccc(CN2CC[C@H](Sc3nc(=O)[nH]cc3C)C2=O)cc1", "note": "[Compound I-254]", "Kd": "> 25"}
{"smiles": "COc1ccc(C(C)NC(=O)C2CC2c2nc(=O)[nH]cc2C)cc1", "note": "(stereo not shown) [Compound I-238]", "Kd": "> 25"}
{"smiles": "COc1ccc([C@@H](C)NC(=O)CSc2nc(=O)[nH]cc2C)cc1", "note": "[Compound I-27]", "Kd": "1 to 25"}
{"smiles": "COc1ccc(CNC(=O)COc2nc(=O)[nH]cc2C)cc1", "note": "[Compound I-31]", "Kd": "> 25"}
{"smiles": "COc1cnc(CNC(=O)CSc2nc(=O)[nH]cc2C)nc1", "note": "[Compound I-44]", "Kd": "1 to 25"}
{"smiles": "COc1ccc([C@H](C)NC(=O)CSc2nc(=O)[nH]cc2C)cc1", "note": "[Compound I-26]", "Kd": "> 25"}
{"smiles": "CCc1c[nH]c(=O)nc1SCC(=O)N[C@H](C)c1ccc(OC)cc1", "note": "[Compound I-226]", "Kd": "1 to 25"}
{"smiles": "COc1ccc(C(C)NC(=O)CSc2nc(=O)[nH]cc2C2CC2)cc1", "note": "(stereo not shown) [Compound I-225]", "Kd": "> 25"}
{"target": "T1, CNOT7", "assay": "Binding of compounds to CNOT7 by surface plasmon resonance (SPR)", "conditions": "Table 6; dissociation constant for CNOT7 by SPR", "experimental": "as §1", "units": {"Kd": "µM"}}
{"smiles": "COc1ccc([C@@H](C)NC(=O)[C@@H](CCOCCOCCOCCN=[N+]=[N-])Sc2cc[nH]c(=O)n2)cc1", "note": "[Compound I-261]", "Kd": "1 to 25"}
{"smiles": "COc1ccc([C@@H](C)NC(=O)CSc2cc(=O)[nH]cc2C)nc1", "note": "[Compound I-281]", "Kd": "1 to 25"}
{"smiles": "COc1ccc([C@@H](NC(=O)CSc2nc(=O)[nH]cc2C)C(C)C)cc1", "note": "[Compound I-327]", "Kd": "1 to 25"}
{"smiles": "COc1ccc([C@@H](C)NC(=O)CSc2nc(=O)[nH]cc2C)c(C)c1", "note": "[Compound I-248]", "Kd": "0.1 to 1"}
{"smiles": "Cc1c[nH]c(=O)nc1SCC(=O)NC(C)c1ccc2c(c1)CC(=O)N2", "note": "(stereo not shown) [Compound I-322]", "Kd": "1 to 25"}
{"smiles": "COC[C@H](Sc1nc(=O)[nH]cc1C)C(=O)N[C@@H](C)c1ccc2c(c1)CC(=O)N2", "note": "[Compound I-325]", "Kd": "1 to 25"}
{"smiles": "C#CCOCCOCCOCCOC[C@@H]1Cc2cc(OC)ccc2CN1C(=O)CSc1nc(=O)[nH]cc1C", "note": "[Compound I-203]", "Kd": "1 to 25"}
{"smiles": "COc1ccc(C(C)NC(=O)CSc2nc(=O)[nH]cc2C)cc1F", "note": "(stereo not shown) [Compound I-244]", "Kd": "1 to 25"}
{"target": "T1, CNOT7", "assay": "Binding of compounds to CNOT7 by surface plasmon resonance (SPR)", "conditions": "dissociation constant by SPR, Table 7", "experimental": "as §1", "units": {"Kd": "µM"}}
{"smiles": "C#CCOCCOCCOCCOC[C@@H]1Cc2cc(OC)ccc2[C@@H](C)N1C(=O)CSc1nc(=O)[nH]cc1Cl", "note": "[Compound I-432]", "Kd": "1 to 25"}
{"smiles": "COc1ccc2c(c1)CCN(C(=O)[C@@H](COCCOCCOCCN=[N+]=[N-])Sc1nc(=O)[nH]cc1C)[C@@H]2C", "note": "[Compound I-421, 4-[(1R)-1-[2-[2-(2-azidoethoxy)ethoxy]ethoxymethyl]-2-[(1R)-6-methoxy-1-methyl-3,4-dihydro-1H-isoquinolin-2-yl]-2-oxo-ethyl]sulfanyl-5-methyl-1H-pyrimidin-2-one]", "Kd": "> 25"}
{"smiles": "COc1ccc(CNC(=O)[C@@H](COCCOCCOCCN=[N+]=[N-])Sc2nc(=O)[nH]cc2C)c(F)c1", "note": "[Compound I-405]", "Kd": "1 to 25"}
{"smiles": "COc1ccc([C@@H](NC(=O)CSc2nc(=O)[nH]cc2C)C(C)C)cc1", "note": "[Compound I-327]", "Kd": "1 to 25"}
{"smiles": "C#CCOCCOCCOCCOC[C@@H]1Cc2cc(OC)ccc2[C@H](C)N1C(=O)CSc1nc(=O)[nH]cc1Cl", "note": "[Compound I-482]", "Kd": "1 to 25"}
{"smiles": "COc1ccc([C@@H](C)NC(=O)[C@@H](COCCOCCOCCN=[N+]=[N-])Sc2nc(=O)[nH]cc2Cl)c(F)c1", "note": "[Compound I-392]", "Kd": "1 to 25"}
{"smiles": "COC[C@H](Sc1nc(=O)[nH]cc1C)C(=O)N[C@@H](C)c1ccc2c(c1)CC(=O)N2", "note": "[Compound I-325]", "Kd": "1 to 25"}
{"smiles": "COCCOCC#CCC(Sc1nc(=O)[nH]cc1C)C(=O)NCc1ccc(OC)cc1", "note": "(stereo not shown) [Compound I-500]", "Kd": "1 to 25"}
{"smiles": "COc1cc(F)c2c(c1)CCN(C(=O)CSc1nc(=O)[nH]cc1Cl)C2", "note": "[Compound I-440]", "Kd": "> 25"}
{"smiles": "C#CCOCCOCCOCC(Sc1nc(=O)[nH]cc1Cl)C(=O)NC(C)c1ccc(OC)cc1F", "note": "(stereo not shown) [Compound I-342]", "Kd": "1 to 25"}
{"smiles": "COCCNC(=O)CCC(Sc1nc(=O)[nH]cc1C)C(=O)NCc1ccc(OC)cc1", "note": "(stereo not shown) [Compound I-490]", "Kd": "1 to 25"}
{"smiles": "COc1ccc2c(c1)[C@H](COCCOCCOCCOCCN=[N+]=[N-])CN(C(=O)CSc1nc(=O)[nH]cc1Cl)[C@@H]2C", "note": "[Compound I-426]", "Kd": "1 to 25"}
